In BindingDB's records for PubMed 11306677 (Upr 9023, 2001):
Several values for one entry are separate records, joined by “and”; a condition that tells them apart may be missing. Equal entries are not always repeated.

Columns and labels:
[1] = target: Metabotropic glutamate receptor 2 (Homo sapiens, UniProt Q14416)
[2] = target: Metabotropic glutamate receptor 1 (Rattus norvegicus, UniProt P23385)
[3] = target: Metabotropic glutamate receptor 5 (Rattus norvegicus, UniProt P31424)
Chain of Metabotropic glutamate receptor 5 (P31424 whole entry): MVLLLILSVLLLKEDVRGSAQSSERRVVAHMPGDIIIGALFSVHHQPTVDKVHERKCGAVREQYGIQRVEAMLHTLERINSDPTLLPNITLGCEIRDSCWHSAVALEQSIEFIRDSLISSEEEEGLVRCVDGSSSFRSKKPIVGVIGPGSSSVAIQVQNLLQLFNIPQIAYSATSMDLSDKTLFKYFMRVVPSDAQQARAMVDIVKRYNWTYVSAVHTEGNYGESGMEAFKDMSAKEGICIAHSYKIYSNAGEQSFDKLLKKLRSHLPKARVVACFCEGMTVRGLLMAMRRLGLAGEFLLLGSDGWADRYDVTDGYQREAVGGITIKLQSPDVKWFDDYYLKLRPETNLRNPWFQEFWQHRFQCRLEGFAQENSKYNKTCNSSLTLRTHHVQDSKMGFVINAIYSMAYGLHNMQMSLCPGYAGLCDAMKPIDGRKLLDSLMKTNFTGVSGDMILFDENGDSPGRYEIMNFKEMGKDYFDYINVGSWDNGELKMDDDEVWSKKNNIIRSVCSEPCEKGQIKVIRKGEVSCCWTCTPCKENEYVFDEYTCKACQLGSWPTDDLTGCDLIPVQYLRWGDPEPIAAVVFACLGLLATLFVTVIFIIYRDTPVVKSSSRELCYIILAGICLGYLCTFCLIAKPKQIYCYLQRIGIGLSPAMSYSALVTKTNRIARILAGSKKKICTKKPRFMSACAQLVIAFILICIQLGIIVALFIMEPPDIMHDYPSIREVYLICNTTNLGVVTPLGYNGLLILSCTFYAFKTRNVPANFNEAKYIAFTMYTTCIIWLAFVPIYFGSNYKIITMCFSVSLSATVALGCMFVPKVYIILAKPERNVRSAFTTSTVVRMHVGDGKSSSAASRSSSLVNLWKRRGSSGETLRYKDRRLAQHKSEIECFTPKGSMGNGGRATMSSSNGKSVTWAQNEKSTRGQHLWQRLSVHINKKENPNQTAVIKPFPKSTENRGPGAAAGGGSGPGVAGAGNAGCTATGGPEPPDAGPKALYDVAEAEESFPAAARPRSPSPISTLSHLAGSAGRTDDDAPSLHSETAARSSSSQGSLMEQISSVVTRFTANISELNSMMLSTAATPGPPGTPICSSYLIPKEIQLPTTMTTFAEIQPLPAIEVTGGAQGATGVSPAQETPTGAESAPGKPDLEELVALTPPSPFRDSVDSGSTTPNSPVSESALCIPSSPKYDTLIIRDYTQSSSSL

Chain of Metabotropic glutamate receptor 2 (Q14416 whole entry): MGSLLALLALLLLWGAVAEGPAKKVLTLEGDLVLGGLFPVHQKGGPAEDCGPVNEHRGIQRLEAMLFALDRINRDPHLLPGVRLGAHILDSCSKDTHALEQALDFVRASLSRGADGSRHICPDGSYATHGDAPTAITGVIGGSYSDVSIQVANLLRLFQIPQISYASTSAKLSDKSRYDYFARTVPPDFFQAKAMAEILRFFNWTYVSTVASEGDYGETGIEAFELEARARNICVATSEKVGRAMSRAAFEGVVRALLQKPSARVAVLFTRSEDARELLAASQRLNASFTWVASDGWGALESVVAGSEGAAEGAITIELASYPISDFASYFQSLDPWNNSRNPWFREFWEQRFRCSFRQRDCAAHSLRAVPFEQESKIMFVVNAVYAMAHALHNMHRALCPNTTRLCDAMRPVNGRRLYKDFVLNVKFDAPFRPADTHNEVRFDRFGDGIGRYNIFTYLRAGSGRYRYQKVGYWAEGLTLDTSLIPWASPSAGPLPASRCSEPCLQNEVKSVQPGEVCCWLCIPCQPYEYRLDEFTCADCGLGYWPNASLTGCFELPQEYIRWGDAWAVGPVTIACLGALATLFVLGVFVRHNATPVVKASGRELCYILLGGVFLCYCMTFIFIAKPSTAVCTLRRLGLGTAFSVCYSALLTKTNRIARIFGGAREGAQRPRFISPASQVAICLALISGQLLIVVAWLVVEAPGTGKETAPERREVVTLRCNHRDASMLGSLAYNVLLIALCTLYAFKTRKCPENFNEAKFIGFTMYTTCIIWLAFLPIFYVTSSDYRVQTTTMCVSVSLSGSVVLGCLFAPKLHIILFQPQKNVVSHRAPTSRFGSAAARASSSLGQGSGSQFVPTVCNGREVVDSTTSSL
Chain of Metabotropic glutamate receptor 1 (P23385 whole entry): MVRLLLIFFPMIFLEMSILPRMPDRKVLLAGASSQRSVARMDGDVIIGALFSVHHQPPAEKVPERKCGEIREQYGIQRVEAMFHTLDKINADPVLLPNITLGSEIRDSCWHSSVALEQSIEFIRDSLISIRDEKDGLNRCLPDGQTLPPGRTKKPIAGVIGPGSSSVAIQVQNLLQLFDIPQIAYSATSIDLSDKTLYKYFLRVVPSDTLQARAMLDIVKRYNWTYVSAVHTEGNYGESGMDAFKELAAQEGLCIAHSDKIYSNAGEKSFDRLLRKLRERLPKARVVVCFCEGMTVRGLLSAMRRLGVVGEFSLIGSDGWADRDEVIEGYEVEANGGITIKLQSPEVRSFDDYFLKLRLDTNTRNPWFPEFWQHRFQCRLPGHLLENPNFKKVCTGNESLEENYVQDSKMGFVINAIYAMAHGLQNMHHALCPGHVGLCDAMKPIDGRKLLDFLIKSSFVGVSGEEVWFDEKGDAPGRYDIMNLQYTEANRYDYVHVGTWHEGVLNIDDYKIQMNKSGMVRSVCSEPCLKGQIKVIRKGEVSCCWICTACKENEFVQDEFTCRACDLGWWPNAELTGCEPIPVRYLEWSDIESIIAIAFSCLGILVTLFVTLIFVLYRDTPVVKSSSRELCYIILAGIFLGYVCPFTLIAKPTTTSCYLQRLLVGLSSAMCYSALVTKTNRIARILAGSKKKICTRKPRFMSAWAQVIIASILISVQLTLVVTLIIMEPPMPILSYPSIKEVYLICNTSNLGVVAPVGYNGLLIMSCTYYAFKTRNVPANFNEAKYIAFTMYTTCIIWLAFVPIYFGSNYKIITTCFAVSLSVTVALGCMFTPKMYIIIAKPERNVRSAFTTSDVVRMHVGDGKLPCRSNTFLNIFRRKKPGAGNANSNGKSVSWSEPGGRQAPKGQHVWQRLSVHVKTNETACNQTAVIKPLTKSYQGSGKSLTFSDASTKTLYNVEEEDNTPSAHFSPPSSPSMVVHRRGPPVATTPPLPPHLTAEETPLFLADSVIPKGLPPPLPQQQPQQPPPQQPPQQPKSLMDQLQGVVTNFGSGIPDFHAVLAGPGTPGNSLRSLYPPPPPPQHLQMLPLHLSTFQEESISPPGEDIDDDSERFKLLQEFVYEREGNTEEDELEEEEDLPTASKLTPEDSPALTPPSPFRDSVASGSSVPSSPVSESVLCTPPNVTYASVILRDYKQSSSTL

Ki [1]: 140 nM | Ki [2]: > 10000 nM | Ki [3]: 240 nM and 500 nM
Structure (SMILES): C=C1C[C@@H]2COC(=O)[C@]2(Cc2ccc3ccccc3c2)C1
